Assay results reported in paper PMC12210654, “Palazestrant, a novel oral Complete Estrogen Receptor Antagonist (CERAN) and Selective Estrogen Receptor Degrader (SERD), in patients with ER+/HER2− advanced or metastatic breast cancer: phase 1/2 study results” (Breast Cancer Research : BCR, 2025).

Assay: Safety: adverse events (NCI CTCAE v5.0), electrocardiograms
Format: in vivo, human
Details: phase 1a; for TEAE Neutropenia, Toxicity Grade All: includes neutropenia and neutrophil count decreased
Experimental: Safety assessments included the monitoring of AEs, clinical laboratory parameters, electrocardiograms, and vital signs. AE severity was graded according to the National Cancer Institute Common Terminology Criteria for Adverse Events (version 5.0).
All DLT analyses (phase 1a) were performed in patients enrolled in the study during cycle 1 and who either received 75% of the planned palazestrant doses or experienced a DLT during cycle 1. All PK analyses were performed in patients who received at least 1 dose of palazestrant and had adequate postbaseline PK samples for characterization of PK parameters. All safety analyses were performed and PFS assessed in patients who received at least 1 dose of palazestrant. Clinical response (CR or PR) was assessed in patients who received at least 1 cycle of palazestrant, had measurable disease at baseline, and had at least 1 postbaseline tumor assessment. CBR was assessed in patients who received at least 1 cycle of palazestrant, had at least 1 postbaseline tumor assessment, and started their first dose at least 24 weeks before data cutoff. Patients who discontinued study treatment without radiographic progression within 24 weeks from the first dose were not included in the CBR analysis. PK parameters were estimated using conventional noncompartmental methods. For CBR, estimates were accompanied by 2-sided 95% confidence intervals (95% CIs). For PFS, Kaplan–Meier analyses were used to determine medians, event-free rates, and 95% CIs. For all other outcomes, categorical data were analyzed using frequencies and percentages, and continuous data were analyzed using means (standard deviation) or medians (range), as appropriate.

CCCN1CC(Oc2ccc([C@@H]3c4[nH]c5ccccc5c4C[C@@H](C)N3CC(C)(C)F)cc2)C1 [palazestrant, Palazestrant]
1 (14.3): TEAE Vomiting, Toxicity Grade All (210 mg (N=7)) | TEAE Neutropenia, Toxicity Grade All (210 mg (N=7)) | TEAE Diarrhea, Toxicity Grade All (300 mg (N=7)) | TEAE Nausea, Toxicity Grade G3 (300 mg (N=7)) | TEAE Neutropenia, Toxicity Grade G4 (300 mg (N=7))
1 (20.0): TEAE Decreased appetite, Toxicity Grade All (150 mg (N=5)) | TEAE Diarrhea, Toxicity Grade All (150 mg (N=5)) | TEAE Fatigue, Toxicity Grade All (150 mg (N=5)) | TEAE Fatigue, Toxicity Grade G3 (150 mg (N=5)) | TEAE Headache, Toxicity Grade All (150 mg (N=5)) | TEAE Nausea, Toxicity Grade G3 (150 mg (N=5)) | TEAE Neutropenia, Toxicity Grade G4 (150 mg (N=5))
9 (21.4): TEAE Headache, Toxicity Grade All (Total (N=42))
0: TEAE Vomiting, Toxicity Grade G3 (60 mg (N=6)) | TEAE Vomiting, Toxicity Grade G4 (60 mg (N=6)) | TEAE Constipation, Toxicity Grade G3 (90 mg (N=6)) | TEAE Constipation, Toxicity Grade G4 (90 mg (N=6)) | TEAE Decreased appetite, Toxicity Grade G3 (90 mg (N=6)) | TEAE Decreased appetite, Toxicity Grade G4 (90 mg (N=6)) | TEAE Diarrhea, Toxicity Grade All (90 mg (N=6)) | TEAE Diarrhea, Toxicity Grade G3 (90 mg (N=6)) | TEAE Diarrhea, Toxicity Grade G4 (90 mg (N=6)) | TEAE Fatigue, Toxicity Grade All (90 mg (N=6)) | TEAE Fatigue, Toxicity Grade G3 (90 mg (N=6)) | TEAE Fatigue, Toxicity Grade G4 (90 mg (N=6)) | TEAE Headache, Toxicity Grade G3 (90 mg (N=6)) | TEAE Headache, Toxicity Grade G4 (90 mg (N=6)) | TEAE Maculopapular rash, Toxicity Grade All (90 mg (N=6)) | TEAE Maculopapular rash, Toxicity Grade G3 (90 mg (N=6)) | TEAE Maculopapular rash, Toxicity Grade G4 (90 mg (N=6)) | TEAE Nausea, Toxicity Grade G3 (90 mg (N=6)) | TEAE Nausea, Toxicity Grade G4 (90 mg (N=6)) | TEAE Neutropenia, Toxicity Grade G3 (90 mg (N=6)) | TEAE Neutropenia, Toxicity Grade G4 (90 mg (N=6)) | TEAE Vomiting, Toxicity Grade G3 (90 mg (N=6)) | TEAE Vomiting, Toxicity Grade G4 (90 mg (N=6)) | TEAE Neutropenia, Toxicity Grade All (90 mg (N=6)) | TEAE Constipation, Toxicity Grade All (120 mg (N=6)) | TEAE Constipation, Toxicity Grade G3 (120 mg (N=6)) | TEAE Constipation, Toxicity Grade G4 (120 mg (N=6)) | TEAE Decreased appetite, Toxicity Grade G3 (120 mg (N=6)) | TEAE Decreased appetite, Toxicity Grade G4 (120 mg (N=6)) | TEAE Diarrhea, Toxicity Grade G3 (120 mg (N=6)) | TEAE Diarrhea, Toxicity Grade G4 (120 mg (N=6)) | TEAE Fatigue, Toxicity Grade G3 (120 mg (N=6)) | TEAE Fatigue, Toxicity Grade G4 (120 mg (N=6)) | TEAE Headache, Toxicity Grade G3 (120 mg (N=6)) | TEAE Headache, Toxicity Grade G4 (120 mg (N=6)) | TEAE Maculopapular rash, Toxicity Grade G3 (120 mg (N=6)) | TEAE Maculopapular rash, Toxicity Grade G4 (120 mg (N=6)) | TEAE Nausea, Toxicity Grade G3 (120 mg (N=6)) | TEAE Nausea, Toxicity Grade G4 (120 mg (N=6)) | TEAE Neutropenia, Toxicity Grade G3 (120 mg (N=6)) | TEAE Vomiting, Toxicity Grade G4 (120 mg (N=6)) | TEAE Constipation, Toxicity Grade All (150 mg (N=5)) | TEAE Constipation, Toxicity Grade G3 (150 mg (N=5)) | TEAE Constipation, Toxicity Grade G4 (150 mg (N=5)) | TEAE Decreased appetite, Toxicity Grade G3 (150 mg (N=5)) | TEAE Decreased appetite, Toxicity Grade G4 (150 mg (N=5)) | TEAE Diarrhea, Toxicity Grade G3 (150 mg (N=5)) | TEAE Diarrhea, Toxicity Grade G4 (150 mg (N=5)) | TEAE Fatigue, Toxicity Grade G4 (150 mg (N=5)) | TEAE Headache, Toxicity Grade G3 (150 mg (N=5)) | TEAE Headache, Toxicity Grade G4 (150 mg (N=5)) | TEAE Maculopapular rash, Toxicity Grade All (150 mg (N=5)) | TEAE Maculopapular rash, Toxicity Grade G3 (150 mg (N=5)) | TEAE Maculopapular rash, Toxicity Grade G4 (150 mg (N=5)) | TEAE Nausea, Toxicity Grade G4 (150 mg (N=5)) | TEAE Neutropenia, Toxicity Grade G3 (150 mg (N=5)) | TEAE Vomiting, Toxicity Grade G3 (150 mg (N=5)) | TEAE Vomiting, Toxicity Grade G4 (150 mg (N=5)) | TEAE Constipation, Toxicity Grade G3 (210 mg (N=7)) | TEAE Constipation, Toxicity Grade G4 (210 mg (N=7)) | TEAE Decreased appetite, Toxicity Grade G3 (210 mg (N=7)) | TEAE Decreased appetite, Toxicity Grade G4 (210 mg (N=7)) | TEAE Diarrhea, Toxicity Grade All (210 mg (N=7)) | TEAE Diarrhea, Toxicity Grade G3 (210 mg (N=7)) | TEAE Diarrhea, Toxicity Grade G4 (210 mg (N=7)) | TEAE Fatigue, Toxicity Grade G3 (210 mg (N=7)) | TEAE Fatigue, Toxicity Grade G4 (210 mg (N=7)) | TEAE Headache, Toxicity Grade All (210 mg (N=7)) | TEAE Headache, Toxicity Grade G3 (210 mg (N=7)) | TEAE Headache, Toxicity Grade G4 (210 mg (N=7)) | TEAE Maculopapular rash, Toxicity Grade G3 (210 mg (N=7)) | TEAE Maculopapular rash, Toxicity Grade G4 (210 mg (N=7)) | TEAE Nausea, Toxicity Grade G3 (210 mg (N=7)) | TEAE Nausea, Toxicity Grade G4 (210 mg (N=7)) | TEAE Neutropenia, Toxicity Grade G3 (210 mg (N=7)) | TEAE Neutropenia, Toxicity Grade G4 (210 mg (N=7)) | TEAE Vomiting, Toxicity Grade G3 (210 mg (N=7)) | TEAE Vomiting, Toxicity Grade G4 (210 mg (N=7)) | TEAE Constipation, Toxicity Grade G3 (300 mg (N=7)) | TEAE Constipation, Toxicity Grade G4 (300 mg (N=7)) | TEAE Decreased appetite, Toxicity Grade G3 (300 mg (N=7)) | TEAE Decreased appetite, Toxicity Grade G4 (300 mg (N=7)) | TEAE Diarrhea, Toxicity Grade G3 (300 mg (N=7)) | TEAE Diarrhea, Toxicity Grade G4 (300 mg (N=7)) | TEAE Fatigue, Toxicity Grade G3 (300 mg (N=7)) | TEAE Fatigue, Toxicity Grade G4 (300 mg (N=7)) | TEAE Headache, Toxicity Grade G3 (300 mg (N=7)) | TEAE Headache, Toxicity Grade G4 (300 mg (N=7)) | TEAE Maculopapular rash, Toxicity Grade G3 (300 mg (N=7)) | TEAE Maculopapular rash, Toxicity Grade G4 (300 mg (N=7)) | TEAE Nausea, Toxicity Grade G4 (300 mg (N=7)) | TEAE Neutropenia, Toxicity Grade G3 (300 mg (N=7)) | TEAE Vomiting, Toxicity Grade G3 (300 mg (N=7)) | TEAE Vomiting, Toxicity Grade G4 (300 mg (N=7)) | TEAE Constipation, Toxicity Grade G3 (Total (N=42)) | TEAE Constipation, Toxicity Grade G4 (Total (N=42)) | TEAE Decreased appetite, Toxicity Grade G3 (Total (N=42)) | TEAE Decreased appetite, Toxicity Grade G4 (Total (N=42)) | TEAE Diarrhea, Toxicity Grade G3 (Total (N=42)) | TEAE Diarrhea, Toxicity Grade G4 (Total (N=42)) | TEAE Fatigue, Toxicity Grade G4 (Total (N=42)) | TEAE Headache, Toxicity Grade G3 (Total (N=42)) | TEAE Headache, Toxicity Grade G4 (Total (N=42)) | TEAE Maculopapular rash, Toxicity Grade G3 (Total (N=42)) | TEAE Maculopapular rash, Toxicity Grade G4 (Total (N=42)) | TEAE Nausea, Toxicity Grade G4 (Total (N=42)) | TEAE Neutropenia, Toxicity Grade G3 (Total (N=42)) | TEAE Vomiting, Toxicity Grade G4 (Total (N=42))
2 (33.3): TEAE Nausea, Toxicity Grade All (90 mg (N=6)) | TEAE Fatigue, Toxicity Grade All (120 mg (N=6)) | TEAE Vomiting, Toxicity Grade All (120 mg (N=6)) | TEAE Neutropenia, Toxicity Grade All (120 mg (N=6))
7 (16.7): TEAE Diarrhea, Toxicity Grade All (Total (N=42)) | TEAE Maculopapular rash, Toxicity Grade All (Total (N=42))
3 (42.9): TEAE Decreased appetite, Toxicity Grade All (210 mg (N=7)) | TEAE Constipation, Toxicity Grade All (300 mg (N=7)) | TEAE Decreased appetite, Toxicity Grade All (300 mg (N=7)) | TEAE Neutropenia, Toxicity Grade All (300 mg (N=7))
2 (28.6): TEAE Fatigue, Toxicity Grade All (210 mg (N=7)) | TEAE Maculopapular rash, Toxicity Grade All (210 mg (N=7)) | TEAE Maculopapular rash, Toxicity Grade All (300 mg (N=7))
4 (57.1): TEAE Constipation, Toxicity Grade All (210 mg (N=7)) | TEAE Nausea, Toxicity Grade All (210 mg (N=7)) | TEAE Fatigue, Toxicity Grade All (300 mg (N=7)) | TEAE Headache, Toxicity Grade All (300 mg (N=7))
14 (33.3): TEAE Fatigue, Toxicity Grade All (Total (N=42))
13 (31.0): TEAE Vomiting, Toxicity Grade All (Total (N=42))
5 (83.3): TEAE Nausea, Toxicity Grade All (120 mg (N=6))
1 (16.7): TEAE Neutropenia, Toxicity Grade All (60 mg (N=6)) | TEAE Constipation, Toxicity Grade All (90 mg (N=6)) | TEAE Decreased appetite, Toxicity Grade All (90 mg (N=6)) | TEAE Headache, Toxicity Grade All (90 mg (N=6)) | TEAE Vomiting, Toxicity Grade All (90 mg (N=6)) | TEAE Decreased appetite, Toxicity Grade All (120 mg (N=6)) | TEAE Diarrhea, Toxicity Grade All (120 mg (N=6)) | TEAE Headache, Toxicity Grade All (120 mg (N=6)) | TEAE Maculopapular rash, Toxicity Grade All (120 mg (N=6)) | TEAE Neutropenia, Toxicity Grade G4 (120 mg (N=6)) | TEAE Vomiting, Toxicity Grade G3 (120 mg (N=6))
2 (4.8): TEAE Nausea, Toxicity Grade G3 (Total (N=42))
4 (9.5): TEAE Neutropenia, Toxicity Grade G4 (Total (N=42))
1 (2.4): TEAE Fatigue, Toxicity Grade G3 (Total (N=42)) | TEAE Vomiting, Toxicity Grade G3 (Total (N=42))
25 (59.5): TEAE Nausea, Toxicity Grade All (Total (N=42))
10 (23.8): TEAE Constipation, Toxicity Grade All (Total (N=42)) | TEAE Decreased appetite, Toxicity Grade All (Total (N=42)) | TEAE Neutropenia, Toxicity Grade All (Total (N=42))
4 (80.0): TEAE Nausea, Toxicity Grade All (150 mg (N=5))
6 (85.7): TEAE Nausea, Toxicity Grade All (300 mg (N=7))
2 (40.0): TEAE Vomiting, Toxicity Grade All (150 mg (N=5)) | TEAE Neutropenia, Toxicity Grade All (150 mg (N=5))
5 (71.4): TEAE Vomiting, Toxicity Grade All (300 mg (N=7))
